Laboratory results reported in patent publication US7070940B2, “Method for determining the ability of a compound to modify the interaction between parkin and the p38 protein” (Aventis Pharma S.A., priority 2002, dated 2006).

Experiments:
[1] = tested on: COS7 cells overexpressing p38; test: p38 perinuclear inclusions (aggresomes) by immunocytochemistry in COS7 cells; type: cell-based; conditions: 15 μg/ml overnight
Protocol: The cells (COS7, 2.5′ 104 and SH-SY5Y cells, 8′ 104) were transfected with the plasmids indicated (pcDNA3-myc-p38, 0.5 ·g; or pcDNA3-myc-p38 and pcDNA3-HA-Parkin, 0.25 ·g of each), and treated or not treated with: epoxomicin (Affiniti, 1 μM), nocodazole (Sigma, 15 μg/ml), cytochalasin D (Sigma, 200 nM) overnight. Forty-eight hours after transfection, the cells were fixed and subjected to standard immunocytochemistry procedures. The polyclonal primary antibodies used were: anti-p38 (M. Mirande, 1:20 000), anti-Parkin (Asp5, 1:400), anti-proteasome 20S (Affiniti, 1:2500), anti-Hsp70 (Stressgen, 1:2500), anti-ubiquitin (Dako, 1:100) and anti-actin (Sigma, 1:100). The monoclonal primary antibodies were: anti ·a-tubulin (clone DM 1A, Sigma, 1:1000), antivimentin (DAKO, clone V9, 1:100) and anti-myc (clone 9E10, Santa Cruz, 1:400). The secondary antibodies were: anti-mouse IgGs conjugated to the fluorochrome Alexa Fluor 488 (Interchim, 1:200) and anti-rabbit IgGs conjugated to the fluorochrome CY3 (Jackson ImmunoResearch, 1:500). The cells were analysed by confocal microscopy.
We analysed the nature and the composition of the p38 protein perinuclear inclusions formed when p38 is overexpressed in cells of the COS7 line. In particular, we wondered whether these inclusions could be of the aggresome type (Kopito et al., 2000). […]

interaction Parkin-p38 = test: Reverse two-hybrid screening assay in yeast (growth on 5-fluoroorotic acid); type: cell-based, Saccharomyces cerevisiae; conditions: internal control; agar medium with 0.35 g/l 5FOA, 30° C., 48 h and/or 72 h
Excerpt: The Saccharomyces cerevisiae strain used for the screening can be the L40 strain used to clone the p38 protein. However, this strain must contain the URA3 reporter gene in place of the HIS3 reporter gene under the control of a promoter containing a sequence to which the LexA protein attaches to induce transcription. This strain may also contain a disruption in the erg6 gene and/or genes such as pdr5 or pdr11, to increase cell permeability to the compounds tested during the screening (WO96/10082).
This strain is simultaneously transformed with the two plasmids encoding the p38 protein or parkin used in the previous two-hybrid test or else encoding homologous or truncated forms of these two proteins. The interaction between these proteins confers a Ura+phenotype on the doubly-transformed strain, by reconstituting a transcription factor capable of inducing transcription of the URA3 reporter gene. This Ura+ phenotype also makes it possible to use the sensitivity of the strain to 5-fluoorotic acid (5FOA) for reverse two-hybrid “positive” screening. […]
48 h and/or 72 h and they may be read by visual examination. […] The compounds which have made it possible to obtain such a response of strain growth restoration are identified as being positive and recorded in a database.

Row | Compound | effect on p38 perinuclear aggregates [1] | yeast strain growth in the presence of 5FOA (interaction Parkin-p38)
1 | COC(=O)Nc1nc2ccc(C(=O)c3cccs3)cc2[nH]1 [nocodazole] | dispersion of the perinuclear aggregates | –
2 | O=c1cnn([C@@H]2O[C@H](CO)[C@@H](O)[C@H]2O)c(=O)[nH]1 [6-azauridine] | – | restores strain growth
